Laboratory results from US6673768B1, “Transgenic animal models for cardiac hypertrophy and methods of use thereof (treating)” (Board of Regents, The University of Texas System, priority 1997, dated 2004).
Values belong to the compound of their own block, whether it stands above or below them.

Tests used:
[1] = tested on: neonatal rat cardiomyocytes; test: AngII- and PE-induced hypertrophy of primary cardiomyocytes (anti-α-actinin staining, cell size and sarcomeric assembly); format: cell-based; conditions: 72 hr; AngII 10 nM or PE 10 μM
Method: A-F, Primary rat cardiocytes in serum-free medium were stimulated with AngII (10 nM) or PE (10 μm) for 72 hours. Cells were then fixed and stained with anti-α-actinin antibody to reveal sarcomeres and Hoechst stain to reveal nuclei.
To visualize primary cardiomyocytes and their sarcomeric organization, anti-α-actinin mouse monoclonal antibody was used (Sigma). […] Cells were washed in 1×phosphate-buffered saline (PBS), fixed in 3.7% paraformaldehyde for 5 minutes, washed three times with 1×PBS and then pre-blocked in 1×PBS containing 2% horse serum, 2% BSA, and 0.1% non-ionic detergent NP40 for 30 minutes. Anti-α-actinin antibody was added at a dilution of 1:800 in fresh preblock solution and incubated for an additional 30 minutes. Subsequently, the cells were washed three times in 1×PBS with 0.1% NP40. Anti-mouse TRITC-conjugated secondary antibody was then added at a dilution of 1:400 for 30 minutes in pre-block solution and the cells were again washed three times in 1×PBS containing 0.1% NP40. Nuclear staining for DNA was performed with 0.5 μg/ml of bisbenzimide in PBS for 15 minutes followed by three rinses with PBS.

cardiac α-actin promoter = test: Cardiac α-actin promoter-reporter (luciferase) activity in transfected cardiomyocytes exposed to agonists; format: cell-based, rat; conditions: for induction of cardiac α-actin promoter-reporter activity over control cells: PE 100 μM, TGF-β1 1 ng/ml
Method: (§1) FIG. 10 presents data showing the effects of adrenoceptor agonists on promoter-reporter activities for ANF, skeletal a-actin and cardiac a-actin, and a time course of effects of DOB on ANF message levels. FIGS. 10A, B, and C are bar graphs showing luciferase reporter levels after transfection of ANF, skeletal α-actin, and cardiac a-actin, respectively, into ventricular myocardial cells, and treatment, 24 hours after transfection, with PE (100 μM), DOB (10 μM), or TGF-β1 (1 ng/ml). Values are corrected for transfection efficiency and reported as the mean±SD from at least three experiments. FIG. 10D. Ventricular myocardial cells were switched to serum-free medium. DOB was added to the medium at various time points. “Control” represents cells treated with the DOB vehicle. 24 hours after incubation, total RNA was extracted and analyzed by Northern blot. Results are representative of n=3 or greater for each time point.
Transient transfection. It was necessary to culture the isolated cardiomyocytes in serum-free medium to eliminate effects on gene expression mediated through serum response elements. Primary myocardial cultures were first washed with serum-free growth medium and then maintained in serum-free Medium 199 supplemented with Nutridoma HU (Boehringer Mannheim Corporation, Indianapolis, Ind.) which contained human serum albumin, bovine insulin and human transferrin. Transfection were carried out by using a liposome-based transfecting agent, Lipofectamine (Life Technologies, Grand Island, N.Y.). The procedures used for transient transfection were followed as the manufacturer's instructions. The optimal values including DNA concentration, lipofectamine concentration, and time length for tansfection were determined prior to experiments carried out in this study. […]
(§2) For α1-adrenergic stimulation, 100 μM PE (Sigma, St. Louis, Mo.) was added to the cells. […] Chemiluminescent β-galactosidase activity was assayed by using an aliquot of the same cell lysates collected for the luciferase assay and measured in the same luminometer as described below. […]

ANF promoter = test: ANF promoter-reporter (luciferase) activity in transfected cardiomyocytes exposed to agonists; format: cell-based, rat
Method: as §1
Transient transfection. It was necessary to culture the isolated cardiomyocytes in serum-free medium to eliminate effects on gene expression mediated through serum response elements. Primary myocardial cultures were first washed with serum-free growth medium and then maintained in serum-free Medium 199 supplemented with Nutridoma HU (Boehringer Mannheim Corporation, Indianapolis, Ind.) which contained human serum albumin, bovine insulin and human transferrin. Transfection were carried out by using a liposome-based transfecting agent, Lipofectamine (Life Technologies, Grand Island, N.Y.). The procedures used for transient transfection were followed as the manufacturer's instructions. The optimal values including DNA concentration, lipofectamine concentration, and time length for tansfection were determined prior to experiments carried out in this study. Briefly, for each transfection, 2 μg DNA and 20 μg lipofectamine were diluted into separate vials containing 300 μl serum-free nutridoma supplemented medium. The two solutions were then combined and incubated at room temperature for 15-45 minutes to allow DNA-liposome complexes to form. For each transfection, 2.4 ml of serum-free nutridoma supplemented medium were added to the tube containing the DNA-liposome complexes and the diluted mixture was overlaid onto the adherent cardiomyocytes that had been rinsed once with 2 ml of serum-free medium in a 60-mm tissue culture plate. The cell cultures were incubated at 37° C. in a C02 incubator containing 5% CO2 for 24 hours, at which time various test compounds were added. Promoter activities from cell extracts were assayed within 48 hours following the start of transfection.
For α1-adrenergic stimulation, 100 μM PE (Sigma, St. Louis, Mo.) was added to the cells. DOB (Gensia Laboratories, Ltd., Irving, Calif.), a selective β1-adrenergic agonist, was added at a concentration of 10 μM. To correct for variation in transfection efficiencies, pβGal-Control was used as an internal control. Chemiluminescent β-galactosidase activity was assayed by using an aliquot of the same cell lysates collected for the luciferase assay and measured in the same luminometer as described below.
Firefly luciferase assay. The firefly luciferase assay is based upon a commercial (Promega, Madison, Wis.) long term “glow” type of bioluminescence assay. Briefly, activation of luciferin results in the formation of an enzyme-bound luciferyl adenylate (luciferyl-AMP). […]

[2] = tested on: skeletal α-actin promoter; test: Skeletal α-actin promoter-reporter (luciferase) activity in transfected cardiomyocytes exposed to agonists; format: cell-based, rat
Method: as §1
Transient transfection. […] The optimal values including DNA concentration, lipofectamine concentration, and time length for tansfection were determined prior to experiments carried out in this study. […]
as §2

[3] = tested on: tetracycline-controlled transactivator (tTA); test: tTA-dependent luciferase target gene expression in primary rat cardiomyocytes; format: cell-based
Method: Cardiomyocytes were co-transfected with tTA expression plasmid pUHD15-1 and either a tTA-dependent luciferase construct pUHC13-3 or empty vector as control. 16 hours after transfection, cells were incubated in either medium without doxcycline (DOX) or medium with doxcycline. […] Open circles, empty vector, no DOX; filled circles, empty vector, plus DOX; open triangles, pUHC 13-3, no DOX; filled triangles, pUHC13-3, plus DOX. FIG. 11B is a bar graph depicting the ability of tTA to stimulate transcription of the target gene and the inhibitory effect of doxcycline 12 hours after transfection.
Tetracycline-controlled transactivator (tTA) expression plasmid pUHD15-1 encodes chimeric protein tTA under the control of the human cytomegalovirus (CMV) promoter and enhancer. tTA consists of amino acid residues 1-207 from the tetR protein and residues 363-490 from VP16 (Gossen and Bujard (1992) Proc. Natl. Acad. Sci. USA 89:5547-5551.
Plasmid pUHD10-3 contains a chimeric tet operon/CMV minimal promoter upstream of multiple cloning sites (Bujard, 1996). pUHC13-3 is a firefly luciferase reporter gene expression plasmid driven by the chimeric tet operon/CMV minimal promoter (Gossen and Bujard (1992).
The firefly luciferase gene as a reporter gene was under control of the chimeric tet operon/CMV minimal promoter in pUHC13-3. Transient transfections were carried out as described in Example 3. […]

CaM kinase II = test: Autonomous CaM kinase II activity in neonatal rat heart tissue slices; format: biochemical; conditions: for CaMKII autonomous activation, increase over unstimulated heart tissues: 30 seconds after treatment, DOB 10 μM, ISO 100 μM
Method: FIG. 9 is a bar graph depicting stimulation of CaMKII activity by b1-adrenergic receptor in neonate rat heart tissue. Neonatal (1-4 day old) heart tissue slices were isolated and treated with isoproterenol (ISO, 100 μM), dolbutamine (DOB, 10 μM), or vehicle alone (control). Propanolol (PROP, 20 μM) was added 2 minutes before agonists were added. After 30 seconds of treatment, autonomous CaMKII activity was assayed. Data are shown as percentage of the ratio of calcium independent activity divided by total activity and represented as the mean±SD from at least three experiments.
Determination of autonomous CaM kinase II activity. CaM kinase II autonomous activity was determined in rat heart tissue homogenates using the synthetic peptide substrate, autocamtide-2 (KKALRRQETVDAL) (Mar et al. (1990) Mol. Cell. Biol. 10:4271-4283; and Farrance et al. (1992) J. Biol. Chem. 267:17234-17240) as exogenous substrate. […] Autonomous CaM kinase II activity was assayed by the phosphorylation of autocamtide-2 in the absence of Ca^2+/calmodulin and expressed as a proportion of activity obtained in the presence of these cofactors. Tissue slices were incubated in the presence or absence of various drug compounds for required time. At termination of the incubation the tissue slices were homogenized in ice-cold buffer (20 mM Tris-HCl, pH 7.5, 0.5 mM EGTA, 1.0 mM EDTA, 2.0 mM dithiothreitol, 10 mM sodium pyrophosphate, 0.4 mM ammonium molybdate, […]) by sonication. Supernatant were cleared by centrifugation (12,000×g, 2 minutes) and then assayed in a reaction mixture containing 50 mM PIPES (pH 7.0), 10 mM MgCl2 0.1 mg/ml bovine serum albumin, […], 20 mM [γ-^32P] […] Endogenous protein was sedimented by centrifugation and supernatants containing autocamtide-2 were spotted onto p81 phosphocellulose strips, washed 5 times, dried and ^32P-PO4 content was quantitated by Cerenkov radiation.
These experiments determined whether signaling through β1-adrenergic receptor subtype could activate cardiac CaMKII. […]

ANF mRNA = test: ANF message level by Northern analysis in neonatal cardiocytes; format: cell-based, rat
Method: FIG. 10 presents data showing the effects of adrenoceptor agonists on promoter-reporter activities for ANF, skeletal a-actin and cardiac a-actin, and a time course of effects of DOB on ANF message levels. FIGS. 10A, B, and C are bar graphs showing luciferase reporter levels after transfection of ANF, skeletal α-actin, and cardiac a-actin, respectively, into ventricular myocardial cells, and treatment, 24 hours after transfection, with PE (100 μM), DOB (10 μM), or TGF-β1 (1 ng/ml). Values are corrected for transfection efficiency and reported as the mean±SD from at least three experiments. FIG. 10D. Ventricular myocardial cells were switched to serum-free medium. […] 24 hours after incubation, total RNA was extracted and analyzed by Northern blot. […]
Northern Analysis. […] After washing at high stringency (0.1×SSPE, 0.1% SDS, 65° C.), hybridized biotinylated cDNA were detected by using Chemiluminescent Detection System (TROPIX, Inc., Bedford, Mass.) and then exposed to X-ray film. The ANF bands were quantitated with a Howteck gel scanner (PDI, Huntington station, N.Y.) and normalized to the 28 S rRNA signal to correct for loading and/or transfer efficiencies.
Primary cultures of neonatal cardiocytes were kept in serum-free medium and β1 agonist, DOB, was applied to the cells at various times. ANF message RNA was evaluated in the end by northern analysis protocols as described above. […]

[4] = PE exposure, construct includes PERE motif
[5] = DOB 10 μM, added 24 hours after transfection

Compound: CNC[C@H](O)c1cccc(O)c1 [PE, phenylephrine]
cardiomyocyte size and sarcomeric assembly after exposure to agonist [1]: dramatic increase in size and sarcomeric assembly
induction of cardiac α-actin promoter-reporter activity over control cells (cardiac α-actin promoter): not significantly stimulated
transactivation of ANF reporter activity over control cells (ANF promoter; PE 100 μM): 200%
activation of ANF50 (NP338) nested deletion promoter-reporter construct (ANF promoter; PE exposure, construct has lost PERE motif): not
activation of ANF135 (NP325) nested deletion promoter-reporter construct (ANF promoter; [4]): activated
activation of ANF700 (NP337) nested deletion promoter-reporter construct (ANF promoter; [4]): activated
transactivation of skeletal α-actin reporter activity over control cells ([2]; PE 100 μM): 200%

Compound: C[C@H]1c2cccc(O)c2C(O)=C2C(=O)[C@]3(O)C(O)=C(C(N)=O)C(=O)[C@@H](N(C)C)[C@@H]3[C@@H](O)[C@@H]21 [doxcycline]
transactivation of the tTA-dependent target gene ([3]; 1 μg/ml after transfection, tTA-transfected cells): markedly repressed
low level expression of the target gene caused by the treatment itself ([3]; 1 μg/ml, 12 hour post-transfection): ~4 fold

Compound: TGF-β1: type β-transforming growth factor
induction of cardiac α-actin promoter-reporter activity over control cells (cardiac α-actin promoter): 700%

Compound: CC(C)NCC(O)COc1cccc2ccccc12 (stereo not drawn) [PROP, propanolol]
effect on DOB- or ISO-induced CaMKII autonomous activity (CaM kinase II; PROP 20 μM added prior to agonist): blocked activation

Now from value to compound, other results behind:

CaMKII autonomous activation, increase over unstimulated heart tissues (CaM kinase II): ~170%
Compound: CC(C)NCC(O)c1ccc(O)c(O)c1 (stereo not drawn) [ISO, isoproterenol]

CaMKII autonomous activation, increase over unstimulated heart tissues (CaM kinase II): ~170%
Compound: CC(CCc1ccc(O)cc1)NCCc1ccc(O)c(O)c1 (stereo not drawn) [DOB, dobutamine]
decline of ANF mRNA compared to control values (ANF mRNA; 24 hours after DOB exposure): 75%
abundance of ANF message relative to control cultures (ANF mRNA; within 16 hours of DOB exposure, serum-free medium): about half
decrease of cardiac α-actin promoter-reporter activity (cardiac α-actin promoter; [5]): approximately 50%
decrease of ANF promoter-reporter activity (ANF promoter; [5]): approximately 50%
decrease of skeletal α-actin promoter-reporter activity [2, 5]: approximately 50%
